Measured values taken from US7122336B2, “Therapeutic and diagnostic methods for ulcerative colitis and associated disorders” (University of Medicine & Dentistry of New Jersey, priority 2000, dated 2006).
“Also recorded” adds a separate entry of the source.

Tests used:
[1] = test system: secretion of CEP in LS-180 cells; experiment: Secretion of CEP by 35S-methionine-labeled LS-180 cells (immunoprecipitation with 7E12H12); type: cell-based, human; details: 7E12H12 immunoprecipitation (FIG. 7A, lanes 1-4); A23187 2 μM, PMA 10 μM, or both
Procedure: A) Culture supernatant of LS-180 cells, labeled with […] (100 μCi/ml) for 16 h and chased for 2 h incubated with various drugs, was immunoprecipitated and analyzed by 3–12% SDS-PAGE-fluorography. For untreated cells, 10 μl/ml of DMSO was added during the chase. Immunoprecipitation was performed using 7E12H12 (lanes 1–4) or LC-1 (lanes 5–8) mAbs. Lanes 1 and 5 show the immunoprecipitation profile of the culture supernatant from untreated cells. Note the presence of a 31 kDa protein in lanes 1 and 5. The effect of secretagogues was examined by addition of 2 μM A23187 (lanes 2 and 7) or 10 μM PMA (lanes 3 and 6) during the chase. To examine the combined effect, A23187 (2 μM) and PMA (10 μM) were added together (lanes 4 and 8, respectively). B and C) For quantitative determination, a densitometric analysis of the 31 kDa band, coimmunoprecipitated with CEP (lanes 1–4) or hTM5 (lane 5–8) was performed with a 1 square millimeter window using a BioRad 670 densitometer after overnight exposure of the gel. Histograms B and C represent lanes 1–4 and 5–8 respectively. D) Effect of inhibitors of secretion on the secretion of hTM5. The inhibitors were added during the chase and the culture medium was immunoprecipitated with LC-1 mAb. Lane-1: PMA (10 μM), Lane-2: DMSO only, Lane-3: monensin (10 μM), and Lane-4: methylamine (10 mM) and analyzed by 3–12% gradient SDS-PAGE-fluorography. […]

[2] = test system: secretion of hTM5 in LS-180 cells; experiment: Secretion of hTM5 by 35S-methionine-labeled LS-180 cells (chase with drugs, immunoprecipitation of culture medium, SDS-PAGE-fluorography, densitometry of 31 kDa band); type: cell-based, human; details: PMA 10 μM; for effect on the secretion of hTM5 (in words): 7E12H12 and LC-1 immunoprecipitations (FIGS. 7B and 7C); for effect on the secretion of hTM5 (in words) / stimulation of the secretion of hTM5 (31 kDa band, densitometry) compared to only DMSO treatment: A23187 2 μM, 2 h chase; for stimulation of the secretion of hTM5 (31 kDa band, densitometry) compared to only DMSO treatment: LS-180 culture medium; for effect of inhibitors of secretion on the secretion of hTM5 (in words): LC-1 immunoprecipitation (FIG. 7D), monensin 10 μM, methylamine 10 mM added during the chase
Procedure: A) Culture supernatant of LS-180 cells, labeled with […] (100 μCi/ml) for 16 h and chased for 2 h incubated with various drugs, was immunoprecipitated and analyzed by 3–12% SDS-PAGE-fluorography. For untreated cells, 10 μl/ml of DMSO was added during the chase. Immunoprecipitation was performed using 7E12H12 (lanes 1–4) or LC-1 (lanes 5–8) mAbs. Lanes 1 and 5 show the immunoprecipitation profile of the culture supernatant from untreated cells. Note the presence of a 31 kDa protein in lanes 1 and 5. The effect of secretagogues was examined by addition of 2 μM A23187 (lanes 2 and 7) or 10 μM PMA (lanes 3 and 6) during the chase. To examine the combined effect, A23187 (2 μM) and PMA (10 μM) were added together (lanes 4 and 8, respectively). B and C) For quantitative determination, a densitometric analysis of the 31 kDa band, coimmunoprecipitated with CEP (lanes 1–4) or hTM5 (lane 5–8) was performed with a 1 square millimeter window using a BioRad 670 densitometer after overnight exposure of the gel. Histograms B and C represent lanes 1–4 and 5–8 respectively. D) Effect of inhibitors of secretion on the secretion of hTM5. The inhibitors were added during the chase and the culture medium was immunoprecipitated with LC-1 mAb. Lane-1: PMA (10 μM), Lane-2: DMSO only, Lane-3: monensin (10 μM), and Lane-4: methylamine (10 mM) and analyzed by 3–12% gradient SDS-PAGE-fluorography.
To examine the possible association of hTM5 with the colon epithelium-specific protein (CEP), reactive with 7E12H12 monoclonal antibody, we adopted the protocols for radiolabeling, chase and drug treatment used in the study of regulated and unregulated secretion of glycoproteins from colon cancer cells (McCool DJ., et al., Biochem J. 1995; 312: 125–33; and Brion C., et al., J. Biol. Chem. 1992; 267: 1477–83). LS-180 cells were labeled with ^35S-methionine by treatment with methionine-free medium supplemented with 5% dialyzed fetal bovine serum and ^35S-methionine (100 μCi/ml) for 16 hours. Labeling was terminated by washing the cells two times with PBS followed by chase with regular DME for 2 hr. To examine the effects of stimulators and inhibitors of secretion, appropriate drugs were added during the chase period as described (McCool et al., supra; and Brion, et al., supra). Immunoprecipitations were performed on the culture medium as described in Kesari, K V and Geliebter, J. Immunol. Letts 1993: 38: 77–83. After the chase, the culture medium was collected, centrifuged to remove any insoluble material, and mixed with one tenth volume of 10× lysis buffer (500 mM Tris Cl, […], 5% NP40, and protease inhibitor cocktail, Complete, Boehringer-Mannheim, GMBH, Germany). To reduce nonspecific binding, the culture medium, where LS-180 cells were grown, was preabsorbed with protein G agarose (GIBCO-BRL, NY) for 16 h at 4° C. Immunoprecipitation was carried out on ice with purified monoclonal antibodies (5 μg/ml) or ascites (10 μl/ml) for 2 h and the immune complexes were collected on Protein G Agarose. To collect IgM immune complexes, protein G Agarose was pre-coated with affinity purified rabbit anti mouse IgM-μ chain-specific immunoglobulins (2 mg IgG/ml gel). The immune complexes were washed three times by centrifugation with ice cold washing buffer-1 (50 mM Tris Cl, pH 7.4, 150 mM NaCl, 5 mM EDTA, and 0.5% NP40), followed by one wash in buffer-2 (50 mM Tris Cl, pH 7.4, 500 mM MaCl, 5 mM EDTA, and 0.5% NP40), and once with buffer-3 (50 mM Tris Cl, pH 7.4).
To investigate whether the release of hTM5 from LS-180 cells is an active process, the effect of known stimulators (secretagogues), and inhibitors of secretion was examined in the present invention. Two secretagogues, the Ca ^2 ionophore A23187, and phorbol-12-myristate-13-acetate (PMA) have been used to explore the secretory pathways in LS-180 cells (McCool D J et al (1995) supra). […]

[3] = test system: mucin secretion in LS-180 cells; details: McCool D J, et al. (1995); cited from earlier work
[4] = test system: CEP; experiment: Cell surface expression of CEP; type: cell-based

CNc1ccc2oc(C[C@H]3O[C@@]4(CC[C@H]3C)O[C@H]([C@H](C)C(=O)c3ccc[nH]3)[C@H](C)C[C@H]4C)nc2c1C(=O)O [A23187]
effect on secretion of CEP (in words) [1]: unaffected | effect on the secretion of hTM5 (in words) [2]: increased | stimulation of the secretion of hTM5 (31 kDa band, densitometry) compared to only DMSO treatment ([2]; 7E12H12 immunoprecipitation (FIG. 7B)): 4.5 fold | stimulation of the secretion of hTM5 (31 kDa band, densitometry) compared to only DMSO treatment ([2]; LC-1 immunoprecipitation (FIG. 7C)): 7.8 fold | effect on mucin secretion in LS-180 cells [3]: stimulate

CCCCCCCCCCCCCC(=O)O[C@@H]1[C@@H](C)[C@@]2(O)[C@@H](C=C(CO)C[C@]3(O)C(=O)C(C)=C[C@@H]23)[C@@H]2C(C)(C)[C@]12OC(C)=O [PMA, phorbol-12-myristate-13-acetate]
effect on secretion of CEP (in words) [1]: unaffected | effect on the secretion of hTM5 (in words) [2]: almost totally inhibited | effect of inhibitors of secretion on the secretion of hTM5 (in words) [2]: absence of hTM5 | effect on mucin secretion in LS-180 cells [3]: stimulate

CN [methylamine]
effect of inhibitors of secretion on the secretion of hTM5 (in words) [2]: inhibited; also recorded: absence of hTM5

CC[C@@]1([C@@H]2O[C@@H]([C@H]3O[C@@](O)(CO)[C@H](C)C[C@@H]3C)C[C@@H]2C)CC[C@H]([C@]2(C)CC[C@]3(C[C@H](O)[C@@H](C)[C@@H]([C@@H](C)[C@@H](OC)[C@H](C)C(=O)O)O3)O2)O1 [monensin]
effect of inhibitors of secretion on the secretion of hTM5 (in words) [2]: inhibited; also recorded: absence of hTM5 | cell surface expression of CEP, sensitivity to drug [4]: sensitive
